In US9440980B2, “Remedy for diabetes” (EA Pharma Co., Ltd., priority 2007, dated 2016):
pKd: −log10 of the molar value.

Tested on: HLF cell membrane
Test: Binding assay of 3H-labeled Compound 1 using HLF cell membrane
Design: species or system human
Details: 3H-labeled Compound 1, calculated by Scatchard plot
Description: A cell membrane of a human liver-derived HLF cell was prepared as follows. HLF cells were approximately confluently cultured in a Dulbecco MEM medium containing 10% FCS in a cell culture dish having a diameter of 15 cm. The HLF cells cultured in 30 dishes were scraped by a cell scraper in the presence of an HMEE buffer (20 mM HEPES-KOH, 1 mM EDTA, 1 mM EGTA, and 2 mM MgCl2) to obtain about 30 ml of a cell suspension. The suspension was homogenized using a TEFLON (registered trademark) homogenizer (ice temperature, 1000 rpm, 15 stroke) and centrifuged at a low rate (1500 rpm, 5 minutes). […]
The binding assay of the ^3H-labeled Compound 1 on thus obtained cell membrane was carried out as follows. […] The filter plate was well washed with a TBS (20 mM Tris-HCl, 0.15 M NaCl, pH 7.4) containing 0.05% Twee-20 and sufficiently dried, 30 μl of a liquid scintillator (Microscinti 0, Packard) was added to the filter plate, and the ^3H count was measured by Topcount (Packard). […]
The inhibitory activity of each of the probe molecule compounds synthesized in Examples 2 and 7 to 10 against the binding of the ^3H-labeled Compound 1 to the HLF cell membrane was measured by the method described in Example 14 to confirm whether the probe compound could be bound to the binding protein like Compound 1. […]

Q: `O=C1NCC2=C1[C@@H](c1cccc3ccsc13)N(C(=O)CCc1ccccn1)[C@@H]1CCCC[C@H]1N2` [Compound 1] was tested. Which pKd did it give?
A: The pKd was 6.03.
